Laboratory results: patent US20060240083A1, “ANTIMICROBIAL AND IMMUNOSTIMULATING COMPOSITION” (BRENNEN MEDICAL, LLC, priority 2000, published 2006)

System: bacteria
Experiment: Zone-of-inhibition test, overall outcome in words
Type: cell-based
Description: A standard zone-of-inhibition study was performed on the lotion and wound dressing exemplars described above. The zone-of-inhibition test involved placing a quantity of the prepared lotion or wound dressing in a petri dish, which had been cultured with a particular bacterium. The bacteria used in this test included: B. subtilis, B. vulgatus, C. albicans, E. coli, P. aeruginosa, and S. aureus. In each of these tests, the diameter of the prepared lotion or wound dressing placed in the cultured petri dishes was measured and recorded at the outset of the test. On the first, second, and fifth days thereafter the diameter of the zone of inhibition was measured and recorded. The zone of inhibition in this test was defined as the area surrounding the prepared lotion or wound dressing on the petri dish which was uninhabited by the bacteria of the specific culture. Table 1 reports data for the prepared lotion zone-of-inhibition test and Table 2 reports data for the prepared wound dressing zone-of-inhibition test.
Similar results are observed for a zone-of-inhibition test when a yeast-derived β-glucan is used in a medical composition as described herein.

With β-glucan the “antimicrobial effect in the zone-of-inhibition test (in words)” value (overall outcome of the zone-of-inhibition tests) was “no inhibition of bacteria” and the “effect on bacterial growth (in words)” value (β-glucan as a microbial nutrient) was “promotes bacterial growth”.
